Results on 2 compounds are retold here after article PMC12173503, “Enterohaemorrhagic Escherichia coli AdhE spirosome length correlates with enzymatic directionality and is perturbed by salicylidene acylhydrazides” (Open Biology, 2025).

The target in assay [1] is T1, AdhE (6-His-AdhE) (Escherichia coli, UniProt P0A9Q7). The assay can be described thus: NADH consumption at […] nm. It is filed as biochemical. Details: full-length AdhE, N-terminal 6-His tag kept, pET28a, expressed in E. coli BL21(DE3); spirosome oligomers, SEC fractions F12 (long) and F24 (short). Conditions: forward reaction; 200 μM acetyl-CoA, 250 μM NADH, 20 μM FeSO4, 250 mM NaCl, 50 mM Tris-HCl pH 8.0, 37 °C.
T1 sequence (P0A9Q7 whole entry): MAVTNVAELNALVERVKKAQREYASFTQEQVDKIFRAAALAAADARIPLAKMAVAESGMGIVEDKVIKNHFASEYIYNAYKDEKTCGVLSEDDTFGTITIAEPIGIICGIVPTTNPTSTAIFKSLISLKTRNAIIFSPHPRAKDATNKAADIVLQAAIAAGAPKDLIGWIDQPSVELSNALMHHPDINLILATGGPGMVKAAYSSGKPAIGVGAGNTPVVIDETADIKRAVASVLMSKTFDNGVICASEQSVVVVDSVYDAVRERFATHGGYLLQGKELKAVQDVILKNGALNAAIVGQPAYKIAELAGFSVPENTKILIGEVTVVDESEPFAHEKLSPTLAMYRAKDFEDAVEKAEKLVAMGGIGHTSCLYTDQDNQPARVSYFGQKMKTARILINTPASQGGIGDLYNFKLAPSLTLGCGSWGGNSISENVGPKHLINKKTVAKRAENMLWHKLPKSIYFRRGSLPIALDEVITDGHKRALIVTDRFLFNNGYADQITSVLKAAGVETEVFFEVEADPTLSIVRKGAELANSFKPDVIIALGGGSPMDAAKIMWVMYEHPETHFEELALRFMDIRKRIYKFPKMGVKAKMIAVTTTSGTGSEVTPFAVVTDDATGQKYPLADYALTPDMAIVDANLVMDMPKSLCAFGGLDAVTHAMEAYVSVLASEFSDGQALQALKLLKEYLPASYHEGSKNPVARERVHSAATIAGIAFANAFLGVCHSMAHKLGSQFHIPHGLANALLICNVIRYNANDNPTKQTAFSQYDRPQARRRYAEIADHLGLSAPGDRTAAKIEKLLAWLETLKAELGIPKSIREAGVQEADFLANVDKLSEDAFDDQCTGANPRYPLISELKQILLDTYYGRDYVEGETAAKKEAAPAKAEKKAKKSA

In assay [2] the target is T1, AdhE (6-His-AdhE). The note with it: reverse reaction; 200 mM ethanol, 500 μM NAD+, 200 μM CoASH, 20 μM FeSO4, 250 mM NaCl, 50 mM Tris-HCl pH 8.0, 37 °C.

`CC(=O)SCCNC(=O)CCNC(=O)[C@H](O)C(C)(C)COP(=O)(O)OP(=O)(O)OC[C@H]1O[C@@H](n2cnc3c(N)ncnc32)[C@H](O)[C@@H]1OP(=O)(O)O` [acetyl-CoA]: on AdhE (6-His-AdhE) [1], the “NADH consumption at 340 nm” value is recorded as “F12 or F24 was incubated with acetyl-CoA in the presence of NADH”.

With `CCO` [ethanol], the “NADH production at 340 nm” value on AdhE (6-His-AdhE) [2] was “F12 or F24 was incubated with ethanol, NAD^+ and CoASH”.
